Tests used:
[1] = tested on: KG1a; test: Differentiation (CD11b expression) in KG1a cells; type: cell-based
Description: (§1) The myeloid leukemic cell lines HL60, NB60, NB4, U937, K562 and KG1a were all grown in RPMI 1640 medium (Life Technologies, Paisley, United Kingdom) supplemented with 10% v/v fetal calf serum (Sear Laboratories International Crawley, United Kingdom), 100 U/mL penicillin, and 100 μg/mL streptomycin (Sigma Aldrich, Poole, United Kingdom) at 37° C. and 5% v/v CO2. AML blasts were isolated from patient bone marrow aspirates and peripheral blood of eight patients at diagnosis or relapse. Patients were not receiving AML therapy at time of sampling. Blasts were isolated by Ficoll density centrifugation and were cultured in serum-free insulin transferrin selenium-positive (ITS+) medium (Life Technologies) containing 300 ng/mL stem cell factor (SCF) and 10 ng/mL interleukin 3 (IL3; R and D Systems, Abingdon, United Kingdom) and antibiotics. Blast purity ranged from 80% to 95%, as assessed by expression of CD34. Normal myeloblasts were isolated from cord blood or adult mobilized peripheral blood. Briefly, CD34^+ cells were indirectly selected from the mononuclear cell preparations using antibody-coated magnetic beads (Miltenyi Biotec, United Kingdom).
(§2) Cell differentiation was determined by staining of cells with anti-CD11b antibody as a general early marker of myeloid differentiation. In studies with HL60 cells, PEP005-treated and 20 nM phorbol myristate (PMA)-treated (Sigma Aldrich) cells were also assessed for their ability to phagocytose complement-coated yeast, a marker of a fully differentiated myeloid cell, as previously described (Toksoz et al, Leukemia Res 6:491-498, 1982). The ingestion of three or more yeasts was taken as a positive result. In normal cord blood or adult bone marrow myeloblasts, loss of CD34 was taken as a marker of differentiation. Isotype-matched controls were used and all antibodies were from DAKO (Cambridge, United Kingdom). […] Images were captured with a SPOT2 cameria (Diagnostic Instructions, Sterling Heights, Mich.) and analyzed using Image-Pro 4.0 software (Media Cybernetics, Silver Spring, Md.).

[2] = tested on: protein kinase C (PKC); conditions: Kedei et al 2004; cited from earlier work
[3] = tested on: NB4; test: Differentiation (CD11b expression) in NB4 cells; type: cell-based; conditions: treated 5 days
Description: (§3) The myeloid leukemic cell lines HL60, NB60, NB4, U937, K562 and KG1a were all grown in RPMI 1640 medium (Life Technologies, Paisley, United Kingdom) supplemented with 10% v/v fetal calf serum (Sear Laboratories International Crawley, United Kingdom), 100 U/mL penicillin, and 100 μg/mL streptomycin (Sigma Aldrich, Poole, United Kingdom) at 37° C. and 5% v/v CO2. AML blasts were isolated from patient bone marrow aspirates and peripheral blood of eight patients at diagnosis or relapse. Patients were not receiving AML therapy at time of sampling. […] Blast purity ranged from 80% to 95%, as assessed by expression of CD34. […]
as §2, with “1982).” for “1982). The ingestion of three or more yeasts was taken as a positive result. In normal cord blood or adult bone marrow myeloblasts, loss of CD34 was taken as a marker of differentiation. Isotype-matched controls were used and all antibodies were from DAKO (Cambridge, United Kingdom).”

[4] = tested on: KG1a; test: Apoptosis (sub-G1 DNA by FACS) in KG1a leukemic cells; type: cell-based; conditions: even at 20 μM PEP005
Description: as §1, with “Blast purity ranged from 80% to 95%, as assessed by expression of CD34.” left out
(§4) To determine the effects of ingenol-3-angelate (PEP005), cells were incubated for up to 5 days with medium alone or PEP005 at a range of concentrations from 0.2 nM to 20 μM. […] Apoptosis and differentiation were assessed after 1 to 5 days.

[5] = target: EGFP-tagged mouse PKC-δ (Mus musculus, UniProt P28867); conditions: KG1a
Description: KG1a cells were transfected with PKC-δ-EGFP or pEGFP-N1 (vector control). At 24 hours after transfection, cells were treated with 0, 0.2, 2 and 20 μM PEP005 and cytospins prepared after 15 minutes. Slides were fixed with 2% v/v paraformaldehyde in PBS for 20 minutes, rinsed briefly in PBS and mounted in Vectashield containing DAPI (4.6 diamidino-2-phenylindole; Vector Laboratories, Burlingame, Calif.). Slides were examined using a Leica Fluorescence microscope (Leica, Heidelberg, Germany) fitted with ×60 oil immersion objective. Images were captured using a Hamanatsu C4742-95 camera (Grafter Imaging, Austin, Tex.) and analyzed using OpenLab 3.1 software (Improvision, Coventry, United Kingdom).

[6] = tested on: Normal CD34+ myeloblasts; test: Apoptosis / cytotoxicity in normal CD34+ myeloblasts; type: cell-based, human
Description: as §3, §4
Cell differentiation was determined by staining of cells with anti-CD11b antibody as a general early marker of myeloid differentiation. In studies with HL60 cells, PEP005-treated and 20 nM phorbol myristate (PMA)-treated (Sigma Aldrich) cells were also assessed for their ability to phagocytose complement-coated yeast, a marker of a fully differentiated myeloid cell, as previously described (Toksoz et al, Leukemia Res 6:491-498, 1982). […]

[7] = tested on: caspase-3; test: Caspase-3 phosphorylation in 32PO4-labeled HL60 cells; type: cell-based; conditions: 20 nM PEP005
Description: To determine if PEP005 induced caspase-3 phosphorylation, HL60 cells were incubated with 1.5×10^7 Bq/mL ^32PO4 (Amersham Pharmacia) in phosphate-free medium for 3 hours prior to addition of 20 nM PEP005 or PEP005 and 5 μM rottlerin (Calbiochem, Nottingham, United Kingdom). Cells were then lysed and caspase-3 was immunoprecipitated with an anti-caspase-3 antibody (BD Pharmingen, Oxford, United Kingdom) or an irrelevant isotype-matched control antibody (DAKO) and the immunoprecipitate was isolated using an anti-mouse immunoglobulin G (IgG) antibody (DAKO) and protein G-coated magnetic beads (microbeads; Miltenyi Biotech). The isolate was taken up in SDS sample buffer and run on a 10% w/v SDS-polyacrylamide gel electrophoresis (PAGE) gel and the labeled proteins were visualized using a phosphorimager.

[8] = tested on: U937; test: Differentiation (CD11b expression) in U937 cells; type: cell-based
Description: as §1, §2

[9] = tested on: U937; conditions: sub-G1 DNA by FACS, treated 5 days
Description: as §1, with “Blast purity ranged from 80% to 95%, as assessed by expression of CD34.” left out
as §4

[10] = tested on: K562; conditions: less sensitive, treated 5 days
Description: as §1, with “Blast purity ranged from 80% to 95%, as assessed by expression of CD34.” left out
as §4

[11] = tested on: NB4; test: Apoptosis (sub-G1 DNA by FACS) in NB4 leukemic cells; type: cell-based
Description: as §1, with “Blast purity ranged from 80% to 95%, as assessed by expression of CD34.” left out
as §4

Chain of EGFP-tagged mouse PKC-δ (P28867 whole entry): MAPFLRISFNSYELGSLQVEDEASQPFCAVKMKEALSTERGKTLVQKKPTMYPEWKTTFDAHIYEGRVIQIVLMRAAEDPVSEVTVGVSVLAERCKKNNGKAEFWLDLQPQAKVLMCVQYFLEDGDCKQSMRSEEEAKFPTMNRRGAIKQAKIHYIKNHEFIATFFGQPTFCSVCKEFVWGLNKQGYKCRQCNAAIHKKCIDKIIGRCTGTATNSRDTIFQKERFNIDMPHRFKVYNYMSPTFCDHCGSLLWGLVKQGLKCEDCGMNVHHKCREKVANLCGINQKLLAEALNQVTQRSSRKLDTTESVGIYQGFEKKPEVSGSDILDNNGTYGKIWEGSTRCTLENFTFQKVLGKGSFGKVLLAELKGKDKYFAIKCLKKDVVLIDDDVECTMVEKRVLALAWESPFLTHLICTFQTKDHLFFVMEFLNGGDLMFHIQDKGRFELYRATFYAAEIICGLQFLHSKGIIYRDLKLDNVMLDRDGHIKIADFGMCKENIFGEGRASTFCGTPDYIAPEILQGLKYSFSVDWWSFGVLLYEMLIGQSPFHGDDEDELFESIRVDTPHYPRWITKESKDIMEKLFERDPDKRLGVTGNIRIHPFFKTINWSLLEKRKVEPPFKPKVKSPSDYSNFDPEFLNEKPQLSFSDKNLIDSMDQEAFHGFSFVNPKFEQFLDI

C/C=C(/C)C(=O)O[C@H]1C(C)=C[C@]23C(=O)[C@@H](C=C(CO)[C@@H](O)[C@]12O)[C@H]1[C@@H](C[C@H]3C)C1(C)C [PEP005, ingenol-3-angelate]
differentiation response ([1]; agent alone): did not respond | CD11b expression ([1]; even at 20 μM PEP005): did not enter apoptosis or show CD11b expression | activation of protein kinase C [2]: potent activator | PEP005 concentration with optimal effect, CD11b expression [3]: 20 nM | entry into apoptosis [4]: did not enter apoptosis | time to translocation of EGFP-tagged PKC-δ to the nuclear region ([5]; 200 nM PEP005): ≤ 5 min | translocation of EGFP-PKC-δ ([5]; from cytosol after PEP005 treatment): induced its translocation to the nucleus and perinuclear region | induction of apoptosis ([6]; concentrations of PEP005 effective against cell lines and AML blast cells, cord blood and adult marrow myeloblasts): Induction of apoptosis was not seen | cytotoxicity ([6]; even at 200 nM PEP005): cytotoxicity did not occur | induction of caspase-3 phosphorylation [7]: able to induce caspase-3 phosphorylation | predominant response (kinetic study) [8]: expressed CD11b as the predominant response before entering apoptosis | synergy with ATRA in CD11b differentiation response ([8]; 10 nM ATRA and 20 nM PEP005 in combination, 5 days): able to synergize with ATRA | PEP005 concentration with optimal effect, CD11b expression ([8]; treated 5 days): 20 nM | PEP005 concentration with optimal effect, apoptosis [9]: 20 nM | PEP005 concentration with maximal response, apoptosis [10]: 2 µM | PEP005 concentration with optimal effect, apoptosis ([11]; sub-G1 DNA by FACS, treated 5 days): 20 nM | fraction of cells entering apoptosis (kinetic study) ([11]; within the first 1 to 2 days of treatment): up to half of the cells entering apoptosis

Source: patent US20080069809A1, “Compositions and methods for the diagnosis and treatment of cancer” (priority 2006, published 2008)
